# Earlier results as cited in paper PMC4096870 (ChemMedChem, 2014).
Compound,IC50 (LYP) [µM],Ki (YopH) [µM],kinact (YopH) [s⁻¹],kinact/KI (YopH) [M⁻¹ s⁻¹]
"O=C(Oc1cc(O)cc2c1C[C@@H](OC(=O)c1cc(O)c(O)c(O)c1)[C@@H](c1cc(O)c(O)c(O)c1)O2)c1cc(O)c(O)c(O)c1 [epigallocatechin-3,5-digallate]",0.05,,,
"C=CS(=O)(=O)c1ccccc1 [PVS, phenyl vinyl sulfone]",,350,0.001,2.9
"O=P(O)(O)C(Br)c1ccccc1 (stereo not drawn) [BBP, α-bromobenzyl phosphonate]",,4100,0.002,0.49
"C=CS(=O)(=O)Oc1ccccc1 [PVSN, phenyl vinyl sulfonate]",,290,0.01,
